Reference: PubChem BioAssay AID1845212 (Molecular Pharmacology Branch, DTP, NCI, 2023)

Tested on: NCI-H719 tumor spheroids, viability
Assay: Anticancer human tumor NCI-H719 cell line growth inhibition;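 further: spheroids exposed to compounds for seven days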;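 on viability, T/C: percent viability relative to DMSO vehicle control as 100%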
Settings: spheroids with HUVEC and MSC; for IC50: curve of first compound; for viability, T/C: stronger effect = lower value
In short: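 Complex tumor spheroids combined malignant cells with endothelial cells and mesenchymal stem cells. DNA-damaging drugs and DNA repair inhibitors were tested alone and in combination, at half-log dilutions down from clinical Cmax (top 10 microM if Cmax unknown), 0.25% DMSO final.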

[1] = second compound 0.003 µM, first compound 0.0316 µM
[2] = second compound 0.003 µM, first compound 0.1 µM
[3] = second compound 0.003 µM, first compound 0.316 µM
[4] = second compound 0.003 µM, first compound 1 µM
[5] = second compound 0.003 µM, first compound 3.16 µM
[6] = second compound 0.003 µM, first compound 10 µM

**Q.** What does the source list for CC(C)n1c(=O)n(C)c2cnc3cc(F)c(-c4ccc(OCCCN5CCCCC5)nc4)cc3c21 + CC[C@@]1(O)C(=O)OCc2c1cc1n(c2=O)Cc2cc3c(CN(C)C)c(O)ccc3nc2-1?
**A.** IC50 (second compound 0.003 µM): < 31.6 nM; IC50 (second compound 0.00949 µM): < 31.6 nM; IC50 (second compound 0.03 µM): < 31.6 nM; IC50 (second compound 0.0949 µM): < 31.6 nM; IC50 (second compound 0.3 µM): < 31.6 nM; viability, T/C [1]: 33.1%; viability, T/C [2]: 48.3%; viability, T/C [3]: 61.5%; viability, T/C [4]: 63.7%; viability, T/C [5]: 67.9%; viability, T/C [6]: 50.5%; viability, T/C (second compound 0.00949 µM, first compound 0.0316 µM): 8.54%; viability, T/C (second compound 0.00949 µM, first compound 0.1 µM): 8.8%; viability, T/C (second compound 0.00949 µM, first compound 0.316 µM): 7.39%; viability, T/C (second compound 0.00949 µM, first compound 1 µM): 6.31%; viability, T/C (second compound 0.00949 µM, first compound 3.16 µM): 16.9%; viability, T/C (second compound 0.00949 µM, first compound 10 µM): 12.7%; viability, T/C (second compound 0.03 µM, first compound 0.0316 µM): 7.27%; viability, T/C (second compound 0.03 µM, first compound 0.1 µM): 6.04%; viability, T/C (second compound 0.03 µM, first compound 0.316 µM): 7.74%; viability, T/C (second compound 0.03 µM, first compound 1 µM): 6.96%; viability, T/C (second compound 0.03 µM, first compound 3.16 µM): 8.35%; viability, T/C (second compound 0.03 µM, first compound 10 µM): 6.27%; viability, T/C (second compound 0.0949 µM, first compound 0.0316 µM): 7.12%; viability, T/C (second compound 0.0949 µM, first compound 0.1 µM): 6.79%; viability, T/C (second compound 0.0949 µM, first compound 0.316 µM): 7.51%; viability, T/C (second compound 0.0949 µM, first compound 1 µM): 7.66%; viability, T/C (second compound 0.0949 µM, first compound 3.16 µM): 7.78%; viability, T/C (second compound 0.0949 µM, first compound 10 µM): 6.17%; viability, T/C (second compound 0.3 µM, first compound 0.0316 µM): 8.38%; viability, T/C (second compound 0.3 µM, first compound 0.1 µM): 7.86%; viability, T/C (second compound 0.3 µM, first compound 0.316 µM): 8.29%; viability, T/C (second compound 0.3 µM, first compound 1 µM): 8.95%; viability, T/C (second compound 0.3 µM, first compound 3.16 µM): 8.79%; viability, T/C (second compound 0.3 µM, first compound 10 µM): 5.92%

**Q.** Which results are given for Cc1cc(C)c(CNC(=O)c2cc(-c3ccc(CN4CCOCC4)cc3)cc3c2cnn3C2CCCC2)c(=O)[nH]1 + COc1cc2c(cc1O)CCNC21CSC2c3c(OC(C)=O)c(C)c4c(c3C(COC1=O)N1C(O)C3Cc5cc(C)c(OC)c(O)c5C(C21)N3C)OCO4?
**A.** IC50 (second compound 30 pM): > 10000 nM; IC50 (second compound 94.9 pM): < 31.6 nM; IC50 (second compound 0.0003 µM): < 31.6 nM; IC50 (second compound 0.000949 µM): < 31.6 nM; IC50 (second compound 0.003 µM): < 31.6 nM; viability, T/C (second compound 30 pM, first compound 0.0316 µM): 90.3%; viability, T/C (second compound 30 pM, first compound 0.1 µM): 100%; viability, T/C (second compound 30 pM, first compound 0.316 µM): 92.1%; viability, T/C (second compound 30 pM, first compound 1 µM): 78.7%; viability, T/C (second compound 30 pM, first compound 3.16 µM): 83.1%; viability, T/C (second compound 30 pM, first compound 10 µM): 56.2%; viability, T/C (second compound 94.9 pM, first compound 0.0316 µM): 24%; viability, T/C (second compound 94.9 pM, first compound 0.1 µM): 26.2%; viability, T/C (second compound 94.9 pM, first compound 0.316 µM): 37.6%; viability, T/C (second compound 94.9 pM, first compound 1 µM): 25.5%; viability, T/C (second compound 94.9 pM, first compound 3.16 µM): 40.4%; viability, T/C (second compound 94.9 pM, first compound 10 µM): 32.2%; viability, T/C (second compound 0.0003 µM, first compound 0.0316 µM): 6.57%; viability, T/C (second compound 0.0003 µM, first compound 0.1 µM): 8.67%; viability, T/C (second compound 0.0003 µM, first compound 0.316 µM): 7.48%; viability, T/C (second compound 0.0003 µM, first compound 1 µM): 8.65%; viability, T/C (second compound 0.0003 µM, first compound 3.16 µM): 11.9%; viability, T/C (second compound 0.0003 µM, first compound 10 µM): 6.02%; viability, T/C (second compound 0.000949 µM, first compound 0.0316 µM): 6.46%; viability, T/C (second compound 0.000949 µM, first compound 0.1 µM): 7.33%; viability, T/C (second compound 0.000949 µM, first compound 0.316 µM): 6.11%; viability, T/C (second compound 0.000949 µM, first compound 1 µM): 6.61%; viability, T/C (second compound 0.000949 µM, first compound 3.16 µM): 7.09%; viability, T/C (second compound 0.000949 µM, first compound 10 µM): 4.83%; viability, T/C [1]: 0.34%; viability, T/C [2]: 0.8%; viability, T/C [3]: 0.7%; viability, T/C [4]: 1.08%; viability, T/C [5]: 0.44%; viability, T/C [6]: 0.8%
